For one molecule, IC50 results are on record in patent US20170196853A1 (AB SCIENCE, priority 2014, published 2017).

The target in one test is FYN (Homo sapiens, UniProt P06241). Kind of test: In vitro enzymatic phosphorylation assay, FYN. Format: biochemical.
A further test addresses LYN (Homo sapiens, UniProt P07948). Kind of test: In vitro enzymatic phosphorylation assay, LYN. Format: biochemical.

Chain of LYN (P07948 whole entry, species assumed): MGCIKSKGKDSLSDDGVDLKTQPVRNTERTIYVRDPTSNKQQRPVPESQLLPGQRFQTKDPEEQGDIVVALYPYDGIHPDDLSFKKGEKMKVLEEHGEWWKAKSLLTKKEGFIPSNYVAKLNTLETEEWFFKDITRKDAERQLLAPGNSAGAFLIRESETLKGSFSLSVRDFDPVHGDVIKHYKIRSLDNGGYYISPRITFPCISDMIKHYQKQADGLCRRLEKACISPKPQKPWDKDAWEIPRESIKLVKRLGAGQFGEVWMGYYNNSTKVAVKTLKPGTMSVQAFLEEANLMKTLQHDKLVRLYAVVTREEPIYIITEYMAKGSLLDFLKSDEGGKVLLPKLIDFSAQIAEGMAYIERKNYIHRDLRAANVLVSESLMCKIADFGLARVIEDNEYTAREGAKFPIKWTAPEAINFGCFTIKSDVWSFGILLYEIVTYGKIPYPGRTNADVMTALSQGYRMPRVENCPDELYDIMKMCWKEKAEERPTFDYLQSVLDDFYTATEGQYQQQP
Chain of FYN (P06241 whole entry, species assumed): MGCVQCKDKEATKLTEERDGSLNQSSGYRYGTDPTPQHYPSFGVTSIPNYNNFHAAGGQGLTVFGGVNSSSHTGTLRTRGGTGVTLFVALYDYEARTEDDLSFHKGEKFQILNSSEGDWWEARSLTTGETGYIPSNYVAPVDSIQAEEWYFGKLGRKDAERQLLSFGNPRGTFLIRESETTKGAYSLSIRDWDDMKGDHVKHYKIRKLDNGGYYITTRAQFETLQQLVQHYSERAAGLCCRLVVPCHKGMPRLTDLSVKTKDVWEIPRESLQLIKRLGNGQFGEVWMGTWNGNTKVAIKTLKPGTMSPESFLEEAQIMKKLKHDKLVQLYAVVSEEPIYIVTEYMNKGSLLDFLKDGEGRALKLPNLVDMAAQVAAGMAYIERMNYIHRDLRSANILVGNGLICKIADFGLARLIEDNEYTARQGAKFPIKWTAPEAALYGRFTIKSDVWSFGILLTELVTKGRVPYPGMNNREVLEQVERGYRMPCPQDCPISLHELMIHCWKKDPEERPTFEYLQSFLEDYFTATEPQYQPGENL

On to `Cc1ccc(NC(=O)c2ccc(CN3CCN(C)CC3)cc2)cc1Nc1nc(-c2cccnc2)cs1` [masitinib, 4-(4-methylpiperazin-1-ylmethyl)-N-[4-methyl-3-(4-pyridin-3y1thiazol-2-ylamino)phenyl]benzamide], for which the concentration for half-maximal inhibition (IC50) stood at 240 nM on FYN and 220 nM at LYN.
